According to the NIST ThermoML archive (doi:10.1021/acs.jced.8b00201):
Numbers after ± are expanded uncertainties.

Test: xn = mol fraction of the nth substance listed
Conditions: 100 kPa, Liquid; for viscosity: Concentric cylinders viscometry; for mass density: Vibrating tube method

## O=C1CCCCC1 [cyclohexanone] + CCCCCCO
293.15 K, x1 = 0.0818
  viscosity: 4.66 ± 0.23 mPa·s
  mass density: 827.6 ± 20 kg/m3
293.15 K, x1 = 0.1594
  viscosity: 4.06 ± 0.2 mPa·s
  mass density: 836.2 ± 20 kg/m3
293.15 K, x1 = 0.2401
  viscosity: 3.55 ± 0.18 mPa·s
  mass density: 845.5 ± 20 kg/m3
293.15 K, x1 = 0.3467
  viscosity: 2.97 ± 0.15 mPa·s
  mass density: 858.2 ± 20 kg/m3
293.15 K, x1 = 0.4439
  viscosity: 2.55 ± 0.13 mPa·s
  mass density: 870.2 ± 20 kg/m3
293.15 K, x1 = 0.564
  viscosity: 2.18 ± 0.11 mPa·s
  mass density: 885.7 ± 20 kg/m3
293.15 K, x1 = 0.6501
  viscosity: 2.02 ± 0.1 mPa·s
  mass density: 897.3 ± 20 kg/m3
293.15 K, x1 = 0.7381
  viscosity: 1.97 ± 0.1 mPa·s
  mass density: 909.5 ± 20 kg/m3
293.15 K, x1 = 0.8512
  viscosity: 2 ± 0.1 mPa·s
  mass density: 925.9 ± 20 kg/m3
293.15 K, x1 = 0.9426
  viscosity: 2.13 ± 0.11 mPa·s
  mass density: 939.8 ± 20 kg/m3
293.15 K, x1 = 1
  viscosity: 2.3 ± 0.12 mPa·s
  mass density: 948.8 ± 20 kg/m3
298.15 K, x1 = 0.0818
  viscosity: 4.03 ± 0.2 mPa·s
  mass density: 823.8 ± 20 kg/m3
298.15 K, x1 = 0.1594
  viscosity: 3.54 ± 0.18 mPa·s
  mass density: 832.2 ± 20 kg/m3
298.15 K, x1 = 0.2401
  viscosity: 3.12 ± 0.16 mPa·s
  mass density: 841.3 ± 20 kg/m3
298.15 K, x1 = 0.3467
  viscosity: 2.63 ± 0.13 mPa·s
  mass density: 853.7 ± 20 kg/m3
298.15 K, x1 = 0.4439
  viscosity: 2.3 ± 0.12 mPa·s
  mass density: 865.5 ± 20 kg/m3
298.15 K, x1 = 0.564
  viscosity: 1.98 ± 0.1 mPa·s
  mass density: 880.7 ± 20 kg/m3
298.15 K, x1 = 0.6501
  viscosity: 1.86 ± 0.09 mPa·s
  mass density: 892.1 ± 20 kg/m3
298.15 K, x1 = 0.7381
  viscosity: 1.81 ± 0.09 mPa·s
  mass density: 904.2 ± 20 kg/m3
298.15 K, x1 = 0.8512
  viscosity: 1.84 ± 0.09 mPa·s
  mass density: 920.5 ± 20 kg/m3
298.15 K, x1 = 0.9426
  viscosity: 1.95 ± 0.1 mPa·s
  mass density: 934.7 ± 20 kg/m3
298.15 K, x1 = 1
  viscosity: 2.09 ± 0.11 mPa·s
  mass density: 943.1 ± 20 kg/m3
303.15 K, x1 = 0.0818
  viscosity: 3.47 ± 0.17 mPa·s
  mass density: 820 ± 20 kg/m3
303.15 K, x1 = 0.1594
  viscosity: 3.07 ± 0.15 mPa·s
  mass density: 828.3 ± 20 kg/m3
303.15 K, x1 = 0.2401
  viscosity: 2.72 ± 0.14 mPa·s
  mass density: 837.2 ± 20 kg/m3
303.15 K, x1 = 0.3467
  viscosity: 2.33 ± 0.12 mPa·s
  mass density: 849.5 ± 20 kg/m3
303.15 K, x1 = 0.4439
  viscosity: 2.05 ± 0.1 mPa·s
  mass density: 861.1 ± 20 kg/m3
303.15 K, x1 = 0.564
  viscosity: 1.8 ± 0.09 mPa·s
  mass density: 876.2 ± 20 kg/m3
303.15 K, x1 = 0.6501
  viscosity: 1.71 ± 0.09 mPa·s
  mass density: 887.5 ± 20 kg/m3
303.15 K, x1 = 0.7381
  viscosity: 1.67 ± 0.08 mPa·s
  mass density: 899.5 ± 20 kg/m3
303.15 K, x1 = 0.8512
  viscosity: 1.7 ± 0.09 mPa·s
  mass density: 915.6 ± 20 kg/m3
303.15 K, x1 = 0.9426
  viscosity: 1.79 ± 0.09 mPa·s
  mass density: 929.8 ± 20 kg/m3
303.15 K, x1 = 1
  viscosity: 1.91 ± 0.1 mPa·s
  mass density: 938.2 ± 20 kg/m3
308.15 K, x1 = 0.0818
  viscosity: 3.04 ± 0.15 mPa·s
  mass density: 816.3 ± 20 kg/m3
308.15 K, x1 = 0.1594
  viscosity: 2.71 ± 0.14 mPa·s
  mass density: 824.4 ± 20 kg/m3
308.15 K, x1 = 0.2401
  viscosity: 2.41 ± 0.12 mPa·s
  mass density: 833.2 ± 20 kg/m3
308.15 K, x1 = 0.3467
  viscosity: 2.09 ± 0.11 mPa·s
  mass density: 845.3 ± 20 kg/m3
308.15 K, x1 = 0.4439
  viscosity: 1.87 ± 0.09 mPa·s
  mass density: 856.8 ± 20 kg/m3
308.15 K, x1 = 0.564
  viscosity: 1.67 ± 0.08 mPa·s
  mass density: 871.8 ± 20 kg/m3
308.15 K, x1 = 0.6501
  viscosity: 1.59 ± 0.08 mPa·s
  mass density: 883 ± 20 kg/m3
308.15 K, x1 = 0.7381
  viscosity: 1.55 ± 0.08 mPa·s
  mass density: 894.9 ± 20 kg/m3
308.15 K, x1 = 0.8512
  viscosity: 1.58 ± 0.08 mPa·s
  mass density: 911 ± 20 kg/m3
308.15 K, x1 = 0.9426
  viscosity: 1.64 ± 0.08 mPa·s
  mass density: 925.1 ± 20 kg/m3
308.15 K, x1 = 1
  viscosity: 1.75 ± 0.09 mPa·s
  mass density: 933.5 ± 20 kg/m3
313.15 K, x1 = 0.0818
  viscosity: 2.66 ± 0.13 mPa·s
  mass density: 812.4 ± 20 kg/m3
313.15 K, x1 = 0.1594
  viscosity: 2.39 ± 0.12 mPa·s
  mass density: 820.5 ± 20 kg/m3
313.15 K, x1 = 0.2401
  viscosity: 2.14 ± 0.11 mPa·s
  mass density: 829.2 ± 20 kg/m3
313.15 K, x1 = 0.3467
  viscosity: 1.86 ± 0.09 mPa·s
  mass density: 841.1 ± 20 kg/m3
313.15 K, x1 = 0.4439
  viscosity: 1.68 ± 0.08 mPa·s
  mass density: 852.5 ± 20 kg/m3
313.15 K, x1 = 0.564
  viscosity: 1.51 ± 0.08 mPa·s
  mass density: 867.3 ± 20 kg/m3
313.15 K, x1 = 0.6501
  viscosity: 1.45 ± 0.07 mPa·s
  mass density: 878.5 ± 20 kg/m3
313.15 K, x1 = 0.7381
  viscosity: 1.42 ± 0.07 mPa·s
  mass density: 890.3 ± 20 kg/m3
313.15 K, x1 = 0.8512
  viscosity: 1.45 ± 0.07 mPa·s
  mass density: 906.3 ± 20 kg/m3
313.15 K, x1 = 0.9426
  viscosity: 1.51 ± 0.08 mPa·s
  mass density: 920.4 ± 20 kg/m3
313.15 K, x1 = 1
  viscosity: 1.6 ± 0.08 mPa·s
  mass density: 928.8 ± 20 kg/m3
318.15 K, x1 = 0.0818
  viscosity: 2.33 ± 0.12 mPa·s
  mass density: 808.7 ± 20 kg/m3
318.15 K, x1 = 0.1594
  viscosity: 2.1 ± 0.1 mPa·s
  mass density: 816.7 ± 20 kg/m3
318.15 K, x1 = 0.2401
  viscosity: 1.9 ± 0.1 mPa·s
  mass density: 825.3 ± 20 kg/m3
318.15 K, x1 = 0.3467
  viscosity: 1.68 ± 0.08 mPa·s
  mass density: 837.1 ± 20 kg/m3
318.15 K, x1 = 0.4439
  viscosity: 1.52 ± 0.08 mPa·s
  mass density: 848.4 ± 20 kg/m3
318.15 K, x1 = 0.564
  viscosity: 1.38 ± 0.07 mPa·s
  mass density: 863.1 ± 20 kg/m3
318.15 K, x1 = 0.6501
  viscosity: 1.33 ± 0.07 mPa·s
  mass density: 874.2 ± 20 kg/m3
318.15 K, x1 = 0.7381
  viscosity: 1.31 ± 0.07 mPa·s
  mass density: 886 ± 20 kg/m3
318.15 K, x1 = 0.8512
  viscosity: 1.33 ± 0.07 mPa·s
  mass density: 901.9 ± 20 kg/m3
318.15 K, x1 = 0.9426
  viscosity: 1.39 ± 0.07 mPa·s
  mass density: 916 ± 20 kg/m3
318.15 K, x1 = 1
  viscosity: 1.46 ± 0.07 mPa·s
  mass density: 924.4 ± 20 kg/m3
323.15 K, x1 = 0.0818
  viscosity: 2.05 ± 0.1 mPa·s
  mass density: 804.9 ± 20 kg/m3
323.15 K, x1 = 0.1594
  viscosity: 1.86 ± 0.09 mPa·s
  mass density: 812.8 ± 20 kg/m3
323.15 K, x1 = 0.2401
  viscosity: 1.7 ± 0.09 mPa·s
  mass density: 821.4 ± 20 kg/m3
323.15 K, x1 = 0.3467
  viscosity: 1.51 ± 0.08 mPa·s
  mass density: 833.2 ± 20 kg/m3
323.15 K, x1 = 0.4439
  viscosity: 1.39 ± 0.07 mPa·s
  mass density: 844.5 ± 20 kg/m3
323.15 K, x1 = 0.564
  viscosity: 1.28 ± 0.06 mPa·s
  mass density: 859.2 ± 20 kg/m3
323.15 K, x1 = 0.6501
  viscosity: 1.23 ± 0.06 mPa·s
  mass density: 870.3 ± 20 kg/m3
323.15 K, x1 = 0.7381
  viscosity: 1.22 ± 0.06 mPa·s
  mass density: 882.2 ± 20 kg/m3
323.15 K, x1 = 0.8512
  viscosity: 1.23 ± 0.06 mPa·s
  mass density: 898.1 ± 20 kg/m3
323.15 K, x1 = 0.9426
  viscosity: 1.27 ± 0.06 mPa·s
  mass density: 912.2 ± 20 kg/m3
323.15 K, x1 = 1
  viscosity: 1.34 ± 0.07 mPa·s
  mass density: 920.7 ± 20 kg/m3
